Consider eleven compounds from ChEMBL document CHEMBL1201862, “PubChem BioAssay data set” (2004).

Molecules are shown by their SMILES.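 Method: 48-hour compound exposure of cells in 96-well plates, five concentrations, linear interpolation of endpoints. Here, GI50 denotes the concentration required for 50% inhibition of growth.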 Activity calls are given as the source filed them. No stated cut-off is given here; in the data, active = GI50 up to about 1.1 µM and inactive = higher.

Assay in all cases: NCI anticancer screen, dose series, 48 h
For test [1], the system named is SK-MEL-28.
In test [2] the test system is SW-620.
Test [3] deals with MDA-MB-435.
For test [4], the system named is LOX IMVI.
Test [5] concerns NCI/ADR-RES.
For test [6], the system named is A549.
The subject of test [7] is Hs-578T.
The subject of test [8] is HCT-116.
The subject of test [9] is HOP-62.
Test [10] has as its system UO-31.
Test [11] has as its system SK-MEL-5.
Test [12] concerns OVCAR-4.
In test [13] the test system is OVCAR-3.
Test [14] relates to Malme-3M.
Test [15] concerns RPMI-8226.
The test system of test [16] is DU-145.
The subject of test [17] is RXF 393.
In test [18] the test system is SF-539.
The subject of test [19] is HCC 2998.
The subject of test [20] is HL-60.

Turning to `O=S(=O)(O)c1ccc(/N=N/c2ccc3c(S(=O)(=O)O)cccc3c2O)c2ccccc12`, the GI50 in test [1], in [2], in test [3], in test [4], in [5] and in [6] was > 100 µM (inactive) in each case. The GI50 in test [7] was > 100 µM (inactive); in test [8], > 100 µM (inactive); in [9], > 100 µM (inactive); in test [10], 39.3 µM (inactive); in test [11], > 100 µM (inactive); in [12], > 100 µM (inactive). Moreover, the GI50 in test [13], in test [14], in test [15], in test [16] and in test [17] was > 100 µM (inactive) in each case.
For `CCOC(=O)c1[nH]cc(C)c1-c1ccc2c(-c3ccccc3)nc3ccccc3n12`, the GI50 was 3.89 µM (inactive) in [1]; 3.13 µM (inactive) in [2]; 2.23 µM (inactive) in test [3]; 3.44 µM (inactive) in test [4]; 2.51 µM (inactive) in [5]; 3.77 µM (inactive) in test [6]. The GI50 was 2 µM (inactive) in [7]; 3.19 µM (inactive) in test [8]; 3.12 µM (inactive) in test [18]; 5.42 µM (inactive) in test [9]; 2.26 µM (inactive) in test [19]; 3.86 µM (inactive) in [10]. Besides, the GI50 is 2.37 µM (inactive) in test [11]; 3.85 µM (inactive) in test [12]; 4.13 µM (inactive) in test [13]; 3.8 µM (inactive) in test [16]; 2.03 µM (inactive) in [17].
With `COc1cc(OC)c2nc(C)c3c(c2c1)NCC3`, the GI50 was 15.2 µM (inactive) in [1]; 4.42 µM (inactive) in test [2]; 10 µM (inactive) in test [3]; 3.25 µM (inactive) in test [4]; 18.4 µM (inactive) in test [5]; 11.8 µM (inactive) in test [6]. Moreover, the GI50 in test [7] was 2.56 µM (inactive); in [8], 3.47 µM (inactive); in test [18], 4.32 µM (inactive); in test [9] it was 7.74 µM (inactive); in test [19], 7.83 µM (inactive); in test [20], 15.7 µM (inactive). Moreover, the GI50 was 8.73 µM (inactive) in test [10]; 10 µM (inactive) in test [11]; 3.63 µM (inactive) in test [12]; 10.2 µM (inactive) in test [13]; 10.4 µM (inactive) in test [14]; 21.6 µM (inactive) in test [16]. In addition, the GI50 in test [17] was 4.48 µM (inactive).
As for `COc1cc2nc(-c3cccs3)nc(N3C(c4ccc(O)cc4)=NNC(=O)c4ccccc43)c2cc1OC`, the GI50 in test [1] was 25.4 µM (inactive); in [2] it was 30.4 µM (inactive); in [3] it was 26.2 µM (inactive); in test [4] it was 22.3 µM (inactive); in test [5], 17.7 µM (inactive); in [6], 55.6 µM (inactive). In addition, the GI50 is 42.9 µM (inactive) in test [7]; 32.4 µM (inactive) in test [8]; < 0.01 µM (active) in test [18]; 56.5 µM (inactive) in test [9]; 18.6 µM (inactive) in test [19]; 19 µM (inactive) in test [10]. Moreover, the GI50 is 46.8 µM (inactive) in test [11]; 28.8 µM (inactive) in [12]; 21.1 µM (inactive) in [14]; 15 µM (inactive) in test [15]; 4.54 µM (inactive) in test [16]; 19.8 µM (inactive) in test [17].
`O=C(CCc1cc(O)cc(O)c1)NCCc1cc(O)cc(OCc2ccccc2)c1`: the GI50 is 54.8 µM (inactive) in test [1]; 72.1 µM (inactive) in test [2]; 36.2 µM (inactive) in test [3]; 33.7 µM (inactive) in test [4]; > 100 µM (inactive) in [5]; 42.3 µM (inactive) in test [6]. The GI50 in test [7] is 32.1 µM (inactive); in test [8], 35.7 µM (inactive); in [18], 36.7 µM (inactive); in test [9] it was 43.6 µM (inactive); in [19], 20.5 µM (inactive); in test [10], 22.2 µM (inactive). In addition, the GI50 is 19.1 µM (inactive) in [11]; 35.7 µM (inactive) in test [13]; 35.8 µM (inactive) in [15]; 33.1 µM (inactive) in [16]; 37 µM (inactive) in test [17].
As for `CC(=O)N1c2ccccc2Sc2cc(C(O)(C(F)(F)F)C(F)(F)F)ccc21`, the GI50 in [1], in test [2], in test [3], in test [4], in test [5] and in test [6] was > 10 µM (inactive) in each case. In addition, the GI50 in test [7], in test [8], in [18], in test [9], in test [19] and in test [20] was > 10 µM (inactive) in each case. The GI50 in test [10] was > 10 µM (inactive); in test [11], 7.26 µM (inactive); in test [12] it was > 10 µM (inactive); in [13], > 10 µM (inactive); in test [14], > 10 µM (inactive); in test [16], > 10 µM (inactive). In addition, the GI50 in [17] is > 10 µM (inactive).
Regarding `O=C(/C=C/c1ccc(O)c(O)c1)OCCCOC(=O)/C=C/c1ccc(O)c(O)c1`, the GI50 in test [1] is 36.6 µM (inactive); in test [2], 11.4 µM (inactive); in [3], 30.2 µM (inactive); in [4], 12.4 µM (inactive); in test [5], 28.4 µM (inactive); in test [6], 31.3 µM (inactive). Further, the GI50 in test [7] is 49.5 µM (inactive); in [8], 18.2 µM (inactive); in test [18], 41.9 µM (inactive); in [9], 11.7 µM (inactive); in [19] it was 38.9 µM (inactive); in test [10], 7.13 µM (inactive). In addition, the GI50 in [11] was 15.9 µM (inactive); in [12], 23.2 µM (inactive); in test [13] it was 10.8 µM (inactive); in [14], 43.3 µM (inactive); in [15] it was 17.4 µM (inactive); in test [16], 34.8 µM (inactive). Besides, the GI50 in [17] was 26.8 µM (inactive).
As for `NNC(=O)c1nn[nH]c1SSc1[nH]nnc1C(=O)NN`, the GI50 in test [1], in test [2], in test [3], in test [4], in test [5] and in test [6] was > 100 µM (inactive) throughout. Also, the GI50 in test [7], in test [8], in test [18], in [9], in [19] and in test [20] was > 100 µM (inactive) in each case. For the same compound, the GI50 in [10], in [11], in [12], in test [13], in [16] and in test [17] was > 100 µM (inactive) each time.
On to `CCCCCCOC(=O)C(N)Cc1ccc(OC)cc1` (stereo not given), for which the GI50 in test [1], in test [2], in [3], in test [4], in test [5] and in [6] was > 100 µM (inactive) throughout. Also, the GI50 in test [7], in test [8], in [18], in [9], in [20] and in test [10] was > 100 µM (inactive) in each case. Moreover, the GI50 in test [11], in [12], in test [13], in test [14], in [16] and in test [17] was > 100 µM (inactive) each time.
For the compound `CCOC1OCCCC1Br` (stereo not given), the GI50 in [1], in test [2], in test [3], in [4], in [5] and in test [6] was > 100 µM (inactive) in each case. Besides, the GI50 in test [7], in test [8], in test [18], in test [9], in test [19] and in [10] was > 100 µM (inactive) each time. The GI50 in test [11], in [12], in [13], in test [14], in [15] and in [16] was > 100 µM (inactive) each time. In addition, the GI50 in [17] is > 100 µM (inactive).
As to `CC(=O)OCC1OC(OCCCOP(=S)(OCCC#N)OCC2OC(n3ccc(N)nc3=O)C(OC(=O)c3ccccc3)C2OC(=O)c2ccccc2)C(OC(C)=O)C(OC(C)=O)C1OC(C)=O` (stereo not given), the GI50 in [1], in test [2], in [3], in test [4], in [5] and in test [6] was > 100 µM (inactive) throughout. For the same compound, the GI50 in test [7] was > 100 µM (inactive); in test [8], > 100 µM (inactive); in [18] it was > 100 µM (inactive); in test [9], 43.5 µM (inactive); in [19] it was > 100 µM (inactive); in test [10] it was > 100 µM (inactive). For the same compound, the GI50 in test [11], in test [12], in test [13], in test [14], in test [15] and in [16] was > 100 µM (inactive) each time. Further, the GI50 in [17] was > 100 µM (inactive).
